# Laboratory results from patent publication US9701664B2, “Fused 1,4-dihydrodioxin derivatives as inhibitors of heat shock transcription factor 1” (Cancer Research Technology Limited, priority 2013, dated 2017).
# Test system: HSP72 in SK-OV-3 cells
# Assay: Cell-based ELISA (Cellisa) assay, SK-OV-3 cells: inhibition of 17-AAG-induced HSP72
# Conditions: SK-OV-3 cells (Examples 169-218)
# Experimental: U2OS cells (5-8×10^4 cells/mL) or SK-OV-3 cells (5-8×10^4 cells/mL) were seeded into 96-well plates and incubated at 37° C. for 48 h. Compounds were then added at a range of concentrations and incubated for 1 h before addition of 17-AAG (250 nM). Cells were then incubated for 18 h. The medium was removed washed 2× with PBS and cells were then fixed with fixing solution (4% paraformaldehyde, 0.3% TritonX-100 in PBS) for 30 min at 4° C. The plates were then washed 2× with PBS before blocking with 5% milk for 30 min at 37° C. After washing the plates 4× with 0.1% Tween-20/deionised water, HSP72 antibody (SPA-810, Enzo Life) was added for 1.5 h at 37° C. Following 4× washes, the plates were incubated with europium-labelled anti-mouse antibody (0.6 ug/ml) in Delfia assay buffer (Perkin Elmer) for 1 h at 37° C. After washing the plates, Delfia enhancement solution was added, shaken for 10 min before reading in the Envision plate reader (Perkin-Elmer) with excitation at 340 nm and emission at 615 nm. The plates were washed again before protein determination using the bicinchoninic acid assay (BCA assay, Pierce Biotechnology). The europium counts were normalised for the amount of protein in each well. The 50% inhibitory concentration value of the compound was then calculated.
Compound,IC50 (Homo sapiens),IC50
"CCN1CCCN(Cc2ccc3cc(C(=O)Nc4cc(NC(=O)c5ccc6c(c5)OCCO6)ccc4F)ccc3n2)CC1 [Example 184, N-(5-(2,3-dihydrobenzo[b][1,4]dioxine-6-carboxamido)-2-fluorophenyl)-2-((4-ethyl-1,4-diazepan-1-yl)methyl)quinoline-6-carboxamide]",60 nM,–
"O=C(Nc1ccc(F)c(NC(=O)c2ccc3nc(CN4CCCC4)ccc3c2)c1)c1ccc2c(c1)OCCO2 [Example 170, N-(5-(2,3-dihydrobenzo[b][1,4]dioxine-6-carboxamido)-2-fluorophenyl)-2-(pyrrolidin-1-ylmethyl)quinoline-6-carboxamide]",379 nM,–
"2-((4-(sec-butyl)piperazin-111)methyl)-N-(2-chloro-5-(2,3-dihydrobenzo[b][1,4]dioxine-6-carboxamido)phenyl)quinoline-6-carboxamide [Example 193]",–,66 nM
"CC1(C)CN(Cc2ccc3cc(C(=O)Nc4cc(NC(=O)c5ccc6c(c5)OCCO6)ccc4Cl)ccc3n2)C1 [Example 201, N-(2-chloro-5-(2,3-dihydrobenzo[b][1,4]dioxine-6-carboxamido)phenyl)-2-((3,3-dimethylazetidin-1-yl)methyl)quinoline-6-carboxamide]",83 nM,–
"C=Cc1ccc(NC(=O)c2ccc3c(c2)OCCO3)cc1NC(=O)c1ccc2nc(C)ccc2c1 [Example 210, N-(5-(2,3-dihydrobenzo[b][1,4]dioxine-6-carboxamido)-2-vinylphenyl)-2-methylquinoline-6-carboxamide]",419 nM,–
"CC1CN(Cc2ccc3cc(C(=O)Nc4cc(NC(=O)c5ccc6c(c5)OCCO6)ccc4F)ccc3n2)C1 [Example 182, N-(5-(2,3-dihydrobenzo[b][1,4]dioxine-6-carboxamido)-2-fluorophenyl)-2-((3-methylazetidin-1-yl)methyl)quinoline-6-carboxamide]",232 nM,–
"CC1CN(Cc2ccc3cc(C(=O)Nc4cc(NC(=O)c5ccc6c(c5)OCCO6)ccc4Cl)ccc3n2)C1 [Example 200, N-(2-chloro-5-(2,3-dihydrobenzo[b][1,4]dioxine-6-carboxamido)phenyl)-2-((3-methylazetidin-1-yl)methyl)quinoline-6-carboxamide]",84 nM,–
"CCN1CCN(Cc2ccc3cc(C(=O)Nc4cc(NC(=O)c5ccc6c(c5)OCCO6)ccc4C)ccc3n2)CC1 [Example 204, N-(5-(2,3-dihydrobenzo[b][1,4]dioxine-6-carboxamido)-2-methylphenyl)-2-((4-ethylpiperazin-1-yl)methyl)quinoline-6-carboxamide]",56 nM,–
"Cc1ccc(NC(=O)c2ccc3c(c2)OCCO3)cc1NC(=O)c1ccc2nc(CN3CCC3)ccc2c1 [Example 203, 2-(azetidin-1-ylmethyl)-N-(5-(2,3-dihydrobenzo[b][1,4]dioxine-6-carboxamido)-2-methylphenyl)quinoline-6-carboxamide]",23 nM,–
"O=C(Nc1ccc(Br)c(NC(=O)c2ccc3nc(CN4CCC4)ccc3c2)c1)c1ccc2c(c1)OCCO2 [Example 216, 2-(azetidin-1-ylmethyl)-N-(2-bromo-5-(2,3-dihydrobenzo[b][1,4]dioxine-6-carboxamido)phenyl)quinoline-6-carboxamide]",55 nM,–
"O=C(Nc1ccc(Cl)c(NC(=O)c2ccc3nc(CN4CCCC4)ccc3c2)c1)c1ccc2c(c1)OCCO2 [Example 198, N-(2-chloro-5-(2,3-dihydrobenzo[b][1,4]dioxine-6-carboxamido)phenyl)-2-(pyrrolidin-1-ylmethyl)quinoline-6-carboxamide]",173 nM,–
"CC(C)N1CCN(Cc2ccc3cc(C(=O)Nc4cc(NC(=O)c5ccc6c(c5)OCCO6)ccc4F)ccc3n2)CC1 [Example 185, N-(5-(2,3-dihydrobenzo[b][1,4]dioxine-6-carboxamido)-2-fluorophenyl)-2-((4-isopropylpiperazin-1-yl)methyl)quinoline-6-carboxamide]",137 nM,–
"O=C(Nc1ccc(F)c(NC(=O)c2ccc3nc(CN4CC5(CCC5)C4)ccc3c2)c1)c1ccc2c(c1)OCCO2 [Example 181, 2-(2-azaspiro[3.3]heptan-2-ylmethyl)-N-(5-(2,3-dihydrobenzo[b][1,4]dioxine-6-carboxamido)-2-fluorophenyl)quinoline-6-carboxamide]",149 nM,–
"Cc1ccc(NC(=O)c2ccc3c(c2)OCCO3)cc1NC(=O)c1ccc2nc(CN3CCCC3C)ccc2c1 (stereo not shown) [Example 205, N-(5-(2,3-dihydrobenzo[b][1,4]dioxine-6-carboxamido)-2-methylphenyl)-2-((2-methylpyrrolidin-1-yl)methyl)quinoline-6-carboxamide]",65 nM,–
"CC(C)N1CCN(Cc2ccc3cc(C(=O)Nc4cc(NC(=O)c5ccc6c(c5)OCCO6)ccc4F)ccc3n2)[C@H](C)C1 [Example 218, (R)—N-(5-(2,3-dihydrobenzo[b][1,4]dioxine-6-carboxamido)-2-fluorophenyl)-2-((4-isopropyl-2-methylpiperazin-1-yl)methyl)quinoline-6-carboxamide]",80 nM,–
"O=C(Nc1ccc(F)c(NC(=O)c2ccc3nc(OCCN4CCCC4)ccc3c2)c1)c1ccc2c(c1)OCCO2 [Example 188, N-(5-(2,3-dihydrobenzo[b][1,4]dioxine-6-carboxamido)-2-fluorophenyl)-2-(2-(pyrrolidin-1-yl)ethoxy)quinoline-6-carboxamide]",57 nM,–
"O=C(Nc1ccc(Cl)c(NC(=O)c2ccc3nc(CN4CCC4)ccc3c2)c1)c1ccc2c(c1)OCCO2 [Example 199, 2-(azetidin-1-ylmethyl)-N-(2-chloro-5-(2,3-dihydrobenzo[b][1,4]dioxine-6-carboxamido)phenyl)quinoline-6-carboxamide]",85 nM,–
"CCN1CCN(Cc2ccc3cc(C(=O)Nc4cc(NC(=O)c5ccc6c(c5)OCCO6)ccc4F)ccc3n2)[C@@H](C)C1 [Example 213, (S)—N-(5-(2,3-dihydrobenzo[b][1,4]dioxine-6-carboxamido)-2-fluorophenyl)-2-((4-ethyl-2-methylpiperazin-1-yl)methyl)quinoline-6-carboxamide]",57 nM,–
"COC1CCN(Cc2ccc3cc(C(=O)Nc4cc(NC(=O)c5ccc6c(c5)OCCO6)ccc4C)ccc3n2)C1 (stereo not shown) [Example 208, N-(5-(2,3-dihydrobenzo[b][1,4]dioxine-6-carboxamido)-2-methylphenyl)-2-((3-methoxypyrrolidin-1-yl)methyl)quinoline-6-carboxamide]",53 nM,–
"CCN1C[C@@H]2C[C@H]1CN2Cc1ccc2cc(C(=O)Nc3cc(NC(=O)c4ccc5c(c4)OCCO5)ccc3F)ccc2n1 [Example 180, N-(5-(2,3-dihydrobenzo[b][1,4]dioxine-6-carboxamido)-2-fluorophenyl)-2-(((1S,4S)-5-ethyl-2,5-diazabicyclo[2.2.1]heptan-2-yl)methyl)quinoline-6-carboxamide]",208 nM,–
"O=C(Nc1ccc(F)c(NC(=O)c2ccc3nc(CN4CCNCC4)ccc3c2)c1)c1ccc2c(c1)OCCO2 [Example 174, N-(5-(2,3-dihydrobenzo[b][1,4]dioxine-6-carboxamido)-2-fluorophenyl)-2-(piperazin-1-ylmethyl)quinoline-6-carboxamide]",78 nM,–
"O=C(Nc1ccc(F)c(NC(=O)c2ccc3nc(OCCCN4CCCCC4)ccc3c2)c1)c1ccc2c(c1)OCCO2 [Example 186, N-(5-(2,3-dihydrobenzo[b][1,4]dioxine-6-carboxamido)-2-fluorophenyl)-2-(3-(piperidin-1-yl)propoxy)quinoline-6-carboxamide]",13 nM,–
